# Assay results reported in ChEMBL document CHEMBL5331076, “Streptogramin A derivatives as mitochondrial translation inhibitors to suppress glioblastoma stem cell growth” (Eur J Med Chem, 2023).
# The source made the active and inactive calls. The calls are words filed in the database; no cut-off is given here.
# Columns and labels:
# COMI [1] = experiment: Growth inhibition of human COMI cells incubated for 48 hrs by Hoechst 33342/PI staining based analysis; assay type: functional
# COMI [2] = experiment: Growth inhibition of human COMI cells incubated for 48 hrs in the presence of quinupristin by Hoechst 33342/PI staining based analysis; assay type: functional
# COMI [3] = experiment: Inhibition of mitochondrial translation in human COMI cells assessed as decrease in ND3 expression level incubated for 48 hrs by immunoblotting analysis; assay type: functional, cell-based
# COMI [4] = experiment: Inhibition of mitochondrial translation in human COMI cells assessed as decrease in COX1 expression level incubated for 48 hrs by immunoblotting analysis; assay type: functional, cell-based
# COMI [5] = experiment: Inhibition of mitochondrial translation in human COMI cells assessed as decrease in COX2 expression level incubated for 48 hrs by immunoblotting analysis; assay type: functional, cell-based
# COMI [6] = experiment: Inhibition of mitochondrial translation in human COMI cells assessed as increase in COX4 expression level incubated for 48 hrs by immunoblotting analysis; assay type: functional, cell-based
# COMI [7] = experiment: Inhibition of mitochondrial translation in human COMI cells assessed as decrease in COX2 expression level at 0.5 to 5 uM incubated for 48 hrs by immunoblotting analysis; assay type: functional, cell-based; settings: dose 0.5-5 µM
# COMI [8] = experiment: Inhibition of mitochondrial translation in human COMI cells assessed as decrease in ND3 expression level at 0.5 to 5 uM incubated for 48 hrs by immunoblotting analysis; assay type: functional, cell-based; settings: dose 0.5-5 µM
# COMI [9] = experiment: Inhibition of mitochondrial translation in human COMI cells assessed as increase in COX4 expression level at 0.5 to 5 uM incubated for 48 hrs by immunoblotting analysis; assay type: functional, cell-based; settings: dose 0.5-5 µM
# COMI [10] = experiment: Inhibition of mitochondrial translation in human COMI cells assessed as decrease in COX1 expression level at 0.5 to 5 uM incubated for 48 hrs by immunoblotting analysis; assay type: functional, cell-based; settings: dose 0.5-5 µM
# COMI [11] = experiment: Growth inhibition of human COMI cells; assay type: functional
# VIPI = experiment: Growth inhibition of human VIPI cells; assay type: functional
# COMI [12] = experiment: Inhibition of mitochondrial translation in human COMI cells assessed as decrease in COX2 expression level at >25 uM incubated for 48 hrs by immunoblotting analysis; assay type: functional, cell-based
# COMI [13] = experiment: Inhibition of mitochondrial translation in human COMI cells assessed as decrease in COX1 expression level at >25 uM incubated for 48 hrs by immunoblotting analysis; assay type: functional, cell-based
# COMI [14] = experiment: Inhibition of mitochondrial translation in human COMI cells assessed as decrease in ND3 expression level at >25 uM incubated for 48 hrs by immunoblotting analysis; assay type: functional, cell-based
# COMI [15] = experiment: Inhibition of mitochondrial translation in human COMI cells assessed as increase in COX4 expression level at >25 uM incubated for 48 hrs by immunoblotting analysis; assay type: functional, cell-based
Compound,GI50 (COMI [1]),GI50 (COMI [2]),inhibition (COMI [3]),inhibition (COMI [4]),inhibition (COMI [5]),inhibition (COMI [6]),also measured
CC1=CC2CNC(=O)/C=C/[C@@H](C)[C@@H](C(C)C)OC(=O)C3=CCCN3C(=O)c3coc(n3)CC(=O)C[C@H](O)C1C1C(=O)OC(=O)C21 (some centres undefined),> 100 µM,19.6 µM,inactive,inactive,inactive,inactive,
CCN(CC)CCS(=O)(=O)[C@@H]1CCN2C(=O)c3coc(n3)C[C@@H](O)C[C@H](O)/C=C(C)/C=C/CNC(=O)/C=C/[C@@H](C)[C@@H](C(C)C)OC(=O)[C@@H]12,18.8 µM,5.17 µM,Active,Active,Active,Active,
CCN(CC)CCS(=O)(=O)[C@@H]1CCN2C(=O)c3coc(n3)C[C@@H](F)C[C@H](O)/C=C(C)/C=C/CNC(=O)/C=C/[C@@H](C)[C@@H](C(C)C)OC(=O)[C@@H]12,20.5 µM,8.37 µM,Active,Active,Active,Active,
CC1=C\C=C\C(=O)Cc2nc(co2)C(=O)N2CCC=C2C(=O)O[C@H](C(C)C)[C@H](C)/C=C/C(=O)NC\C=C\1,20.5 µM,15.6 µM,,,,,
CC1=CC2CNC(=O)/C=C/[C@@H](C)[C@@H](C(C)C)OC(=O)C3=CCCN3C(=O)c3coc(n3)CC(=O)C[C@H](O)C1C1C(=O)NC(=O)C21 (some centres undefined),> 100 µM,16.4 µM,inactive,inactive,inactive,inactive,
CCN(CC)CCS(=O)(=O)[C@@H]1CCN2C(=O)c3coc(n3)C[C@H](F)C[C@H](O)/C=C(C)/C=C/CNC(=O)/C=C/[C@@H](C)[C@@H](C(C)C)OC(=O)[C@@H]12,6.73 µM,5.71 µM,,,,,inhibition (COMI [7]): Active; inhibition (COMI [8]): Active; inhibition (COMI [9]): Active; inhibition (COMI [10]): Active
Cn1nnc2c(C(N)=O)ncn2c1=O [TEMOZOLOMIDE],,,,,,,GI50 (COMI [11]): 96.5 µM; GI50 (VIPI): 338 µM
CCN(CC)CCS(=O)(=O)[C@@H]1CCN2C(=O)c3coc(n3)CC(=O)C[C@H](O)C3C(C)=CC(CNC(=O)/C=C/[C@@H](C)[C@@H](C(C)C)OC(=O)[C@@H]12)C1C(=O)NC(=O)C13 (some centres undefined),> 100 µM,14.5 µM,inactive,inactive,inactive,inactive,
CC1=C\[C@@H](O)C[C@@H](O)Cc2nc(co2)C(=O)N2CCC=C2C(=O)O[C@H](C(C)C)[C@H](C)/C=C/C(=O)NC\C=C\1,21.7 µM,5.28 µM,Active,Active,Active,Active,
CC1=C\[C@@H](O)C[C@@H](F)Cc2nc(co2)C(=O)N2CCC[C@@H]2C(=O)O[C@H](C(C)C)[C@H](C)/C=C/C(=O)NC\C=C\1,7.37 µM,5.83 µM,,,,,inhibition (COMI [7]): Active; inhibition (COMI [8]): Active; inhibition (COMI [9]): Active; inhibition (COMI [10]): Active
CCN(CC)CCS[C@@H]1CCN2C(=O)c3coc(n3)CC(=O)C[C@H](O)/C=C(C)/C=C/CNC(=O)/C=C/[C@@H](C)[C@@H](C(C)C)OC(=O)[C@@H]12,7.02 µM,8 µM,,,,,
CCN(CC)CCOC1CCN2C(=O)c3coc(n3)C[C@H](O)C[C@H](O)/C=C(C)/C=C/CNC(=O)/C=C/[C@@H](C)[C@@H](C(C)C)OC(=O)C12 (some centres undefined),85.3 µM,14 µM,,,,,inhibition (COMI [12]): Active; inhibition (COMI [13]): Active; inhibition (COMI [14]): Active; inhibition (COMI [15]): Active
CCN(CC)CCS(=O)(=O)[C@@H]1CCN2C(=O)c3coc(n3)C[C@H](NC)C[C@H](O)/C=C(C)/C=C/CNC(=O)/C=C/[C@@H](C)[C@@H](C(C)C)OC(=O)[C@@H]12,14.2 µM,4.85 µM,,,,,inhibition (COMI [7]): inactive; inhibition (COMI [8]): inactive; inhibition (COMI [9]): inactive; inhibition (COMI [10]): inactive
CCN(CC)CCS(=O)(=O)[C@@H]1CCN2C(=O)c3coc(n3)C[C@@H](NC)C[C@H](O)/C=C(C)/C=C/CNC(=O)/C=C/[C@@H](C)[C@@H](C(C)C)OC(=O)[C@@H]12,1.56 µM,1.32 µM,,,,,inhibition (COMI [7]): inactive; inhibition (COMI [8]): inactive; inhibition (COMI [9]): inactive; inhibition (COMI [10]): inactive
CCN(CC)CCS(=O)(=O)[C@@H]1CCN2C(=O)c3coc(n3)C[C@H](O)C[C@H](O)/C=C(C)/C=C/CNC(=O)/C=C/[C@@H](C)[C@@H](C(C)C)OC(=O)[C@@H]12,37.5 µM,7.05 µM,Active,Active,Active,Active,
CCN(CC)CCS(=O)(=O)[C@@H]1CCN2C(=O)c3coc(n3)CC(=O)/C=C/C=C(C)/C=C/CNC(=O)/C=C/[C@@H](C)[C@@H](C(C)C)OC(=O)[C@@H]12,10.9 µM,9.9 µM,,,,,
CC1=C\[C@@H](O)C[C@@H](F)Cc2nc(co2)C(=O)N2CCC=C2C(=O)O[C@H](C(C)C)[C@H](C)/C=C/C(=O)NC\C=C\1,4.82 µM,5.42 µM,,,,,inhibition (COMI [7]): Active; inhibition (COMI [8]): Active; inhibition (COMI [9]): Active; inhibition (COMI [10]): Active
CC1=C\[C@@H](O)C[C@H](F)Cc2nc(co2)C(=O)N2CCC=C2C(=O)O[C@H](C(C)C)[C@H](C)/C=C/C(=O)NC\C=C\1,36.1 µM,12.3 µM,Active,Active,Active,Active,
CCN(CC)CCS(=O)(=O)[C@@H]1CCN2C(=O)c3coc(n3)CC(=O)C[C@H](O)C3C(C)=CC(CNC(=O)/C=C/[C@@H](C)[C@@H](C(C)C)OC(=O)[C@@H]12)C1C(=O)OC(=O)C13 (some centres undefined),> 100 µM,14.8 µM,inactive,inactive,inactive,inactive,
CC1=C\[C@@H](O)CC(=O)Cc2nc(co2)C(=O)N2CCC=C2C(=O)O[C@H](C(C)C)[C@H](C)/C=C/C(=O)NC\C=C\1 [VIRGINIAMYCIN FACTOR M1],17.1 µM,7.25 µM,,,,,
CC1=C\[C@@H](O)C[C@H](O)Cc2nc(co2)C(=O)N2CCC=C2C(=O)O[C@H](C(C)C)[C@H](C)/C=C/C(=O)NC\C=C\1,52.5 µM,8.74 µM,Active,Active,Active,Active,
CCN(CC)CCNC1CCN2C(=O)c3coc(n3)C[C@H](O)C[C@H](O)/C=C(C)/C=C/CNC(=O)/C=C/[C@@H](C)[C@@H](C(C)C)OC(=O)C12 (some centres undefined),> 100 µM,16.9 µM,,,,,inhibition (COMI [12]): Active; inhibition (COMI [13]): Active; inhibition (COMI [14]): Active; inhibition (COMI [15]): Active
CN[C@H]1Cc2nc(co2)C(=O)N2CCC=C2C(=O)O[C@H](C(C)C)[C@H](C)/C=C/C(=O)NC/C=C/C(C)=C/[C@@H](O)C1,19.4 µM,6.57 µM,,,,,inhibition (COMI [7]): inactive; inhibition (COMI [8]): inactive; inhibition (COMI [9]): inactive; inhibition (COMI [10]): inactive
CN[C@@H]1Cc2nc(co2)C(=O)N2CCC=C2C(=O)O[C@H](C(C)C)[C@H](C)/C=C/C(=O)NC/C=C/C(C)=C/[C@@H](O)C1,1.16 µM,1.5 µM,,,,,inhibition (COMI [7]): inactive; inhibition (COMI [8]): inactive; inhibition (COMI [9]): inactive; inhibition (COMI [10]): inactive
